The nature of this data set: Stability of polymorph Form II of the besylate salt. The format is physicochemical. The settings on record: exemplary Form II polymorph, solid form. As for the experimental part: In some embodiments, Form II of the besylate salt of compound 101 (2,4-Dichloro-N-[3,5-dichloro-4-(quinolin-3-yloxy)-phenyl]-benzenesulfonamide benzenesulfonate salt) is used. […] In some embodiments, the Form II polymorph can have a melting point between about 230 and 240° C. […] For example, particular Form II polymorphs can have major X-ray powder diffraction pattern peaks at 15, 19, 20.5, 23.5, 24.5, 25, 26.5, 29.5 and 30.5° 2θ using Cu Kα radiation. In certain embodiments, the Form II polymorph can have major X-ray powder diffraction pattern peaks at one, two, three, four, five, six, seven or eight of the X-ray powder diffraction pattern peaks at 15, 19, 20.5, 23.5, 24.5, 25, 26.5, 29.5 and 30.5° 2θ using Cu Kα radiation. In certain embodiments, the Form II polymorph of the invention can have both a melting point between about 230 and 240° C. and major X-ray powder diffraction pattern peaks at one, two, three, four, five, six, seven or eight of the X-ray powder diffraction pattern peaks at 15, 19, 20.5, 23.5, 24.5, 25, 26.5, 29.5 and 30.5° 2θ using Cu Kα radiation. In further embodiments, the Form II polymorph can have major infrared absorbance peaks at one, two, three, four, or five of the infrared absorbance peaks at 1573, 1469, 1459, 912, and 859 cm^−1.

For the molecule `O=S(=O)(Nc1cc(Cl)c(Oc2cnc3ccccc3c2)c(Cl)c1)c1ccc(Cl)cc1Cl.O=S(=O)(O)c1ccccc1` [2,4-Dichloro-N-[3,5-dichloro-4-(quinolin-3-yloxy)-phenyl]-benzenesulfonamide benzenesulfonate salt], the “stability of the polymorph” value is on record as “surprising stability”.

The record behind these values is patent US20110034380A1, “COMBINATION OF A SELECTIVE PPAR-GAMMA MODULATOR AND AN INCRETIN FOR THE TREATMENT OF DIABETES AND OBESITY” (priority 2009, published 2011).
